In the supplement of paper PMC11208160:

Assay: recombinant UMI read abundance after kanamycin selection (control-corrected) (log10(CPM+1)); higher = more efficient recombination; extreme values may be limits of the assay; sequences stand for … in AGTGCAGAGAAAATCGGCCAGTTTTCTCTGCCTGCAGTCCGCATGCCGTGGGACCCCTTGGGTTCTAACCTGTTGCCTAGATTTATGCAGCGGACTGCCTTTCTCCCAAAGTGATAAACCGG…AGGTTGGTTTCACT; site = the 11-nt donor
Method in brief: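 For the IS621 bridge recombinase, a pooled Escherichia coli screen tested donor and donor-binding-loop pairs. Cells received the pair library together with a target plasmid encoding a fixed target and T7-inducible recombinase, then went onto IPTG (0.07 mM) plus kanamycin or unselected plates in duplicate. After PCR across the donor–target junction and sequencing, recombinant UMI counts were normalized to CPM, averaged, and scaled by control-derived factors. Each value is given as log10(CPM+1).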
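Also: IS621 bridge recombinase in Escherichia coli cells against a fixed T5 target plasmid.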

Going from “CAATGATCATGGACCGGTTTTCCCGGTAATCCGTATTTGCT (site CAATGATCTAG)” to “CAATGATCATGGACCGGTTTTCCCGGTAATCCGTATTTGCT (site CGATCATCTAG)”, the “recombinant UMI read abundance (log10)” value falls from 2.19 to 0.

Compared with “CAATGCACATGGACCGGTTTTCCCGGTAATCCGTATTTGAA (site CAATGCACTTT)”, “CAATGCACATGGACCGGTTTTCCCGGTAATCCGTATTTGAA (site CAATGCCCTTT)” is lower in “recombinant UMI read abundance (log10)” value: 1.97 for the first, 0 for the second.

“CAATGCACATGGACCGGTTTTCCCGGTAATCCGTATTTGAA (site CAATGCGCTTT)” and “CAATGCACATGGACCGGTTTTCCCGGTAATCCGTATTTGAA (site CAATGCTCTTT)” are within 0.2 log units of each other in “recombinant UMI read abundance (log10)” value: 0.409 for the first, 0.438 for the second.

Compared with “CAATGCTCATGGACCGGTTTTCCCGGTAATCCGTATTTGCA (site CAATGCTCTTA)”, “CAATGCTCATGGACCGGTTTTCCCGGTAATCCGTATTTGCA (site CAATGCTCTTC)” is lower in “recombinant UMI read abundance (log10)” value: 1.1 for the first, 0 for the second.

First: CAATGCTCATGGACCGGTTTTCCCGGTAATCCGTATTTGCA (site CAATGCTCTTG)
Second: CAATGCTCATGGACCGGTTTTCCCGGTAATCCGTATTTGCA (site CAATGCTCTTT)
The “recombinant UMI read abundance (log10)” value of the first is higher: 2.35 for the first, 0.353 for the second.

Going from “CAATGCTCATGGACCGGTTTTCCCGGTAATCCGTATTTGGA (site CAATGCTCTTA)” to “CAATGCTCATGGACCGGTTTTCCCGGTAATCCGTATTTGGA (site CAATGCTCTTC)”, the “recombinant UMI read abundance (log10)” value rises from 2.13 to 2.46.

Going from “CAATGCTCATGGACCGGTTTTCCCGGTAATCCGTATTTGGA (site CAATGCTCTTG)” to “CAATGCTCATGGACCGGTTTTCCCGGTAATCCGTATTTGGA (site CAATGCTCTTT)”, the “recombinant UMI read abundance (log10)” value rises from 1.83 to 2.45.

Going from “CAATTCACATGGACCGGTTTTCCCGGTAATCCGTATTTGCT (site CAATTCACTAG)” to “CAATTCACATGGACCGGTTTTCCCGGTAATCCGTATTTGCT (site CAATTCCCTAG)”, the “recombinant UMI read abundance (log10)” value falls from 1.32 to 0.

First: CAATTCACATGGACCGGTTTTCCCGGTAATCCGTATTTGCT (site CAATTCGCTAG)
Second: CAATTCACATGGACCGGTTTTCCCGGTAATCCGTATTTGCT (site CAATTCTCTAG)
The “recombinant UMI read abundance (log10)” value of the first is higher: 0.587 for the first, 0 for the second.

First: CAATTCCCATGGACCGGTTTTCCCGGTAATCCGTATTTGCC (site CAATTCCCTAG)
Second: CAATTCCCATGGACCGGTTTTCCCGGTAATCCGTATTTGCC (site CAATTCCCTCG)
The “recombinant UMI read abundance (log10)” value of the first is higher: 0.635 for the first, 0.0185 for the second.

“CAATTCCCATGGACCGGTTTTCCCGGTAATCCGTATTTGCC (site CAATTCCCTGG)” and “CAATTCCCATGGACCGGTTTTCCCGGTAATCCGTATTTGCC (site CAATTCCCTTG)” are the same in “recombinant UMI read abundance (log10)” value: 0 for the first, 0 for the second.

Compared with “CAATTCCCATGGACCGGTTTTCCCGGTAATCCGTATTTGGT (site CAATTCCCTAA)”, “CAATTCCCATGGACCGGTTTTCCCGGTAATCCGTATTTGGT (site CAATTCCCTAC)” is higher in “recombinant UMI read abundance (log10)” value: 0.173 for the first, 0.529 for the second.

First: CAATTCCCATGGACCGGTTTTCCCGGTAATCCGTATTTGGT (site CAATTCCCTAG)
Second: CAATTCCCATGGACCGGTTTTCCCGGTAATCCGTATTTGGT (site CAATTCCCTAT)
The “recombinant UMI read abundance (log10)” value of the first is lower: 0 for the first, 0.681 for the second.

Compared with “CAATTGACATGGACCGGTTTTCCCGGTAATCCGTATTTGAA (site CAATTGACTTT)”, “CAATTTCCATGGACCGGTTTTCCCGGTAATCCGTATTTGCT (site CAATTACCTAG)” is lower in “recombinant UMI read abundance (log10)” value: 2.17 for the first, 0 for the second.

Going from “CAATTTCCATGGACCGGTTTTCCCGGTAATCCGTATTTGCT (site CAATTCCCTAG)” to “CAATTTCCATGGACCGGTTTTCCCGGTAATCCGTATTTGCT (site CAATTGCCTAG)”, the “recombinant UMI read abundance (log10)” value falls from 0.761 to 0.00704.

First: CAATTTCCATGGACCGGTTTTCCCGGTAATCCGTATTTGCT (site CAATTTCCTAG)
Second: CACAAATCATGGACCGGTTTTCCCGGTAATCCGTATTTGAC (site CACAAATCTGT)
The “recombinant UMI read abundance (log10)” value of the first is lower: 1.08 for the first, 1.62 for the second.

Going from “CACAGCCCATGGACCGGTTTTCCCGGTAATCCGTATTTGTT (site CACAGCCCTAA)” to “CACAGCCCATGGACCGGTTTTCCCGGTAATCCGTATTTGTT (site CACCGCCCTAA)”, the “recombinant UMI read abundance (log10)” value falls from 0.97 to 0.00684.

“CACAGCCCATGGACCGGTTTTCCCGGTAATCCGTATTTGTT (site CACGGCCCTAA)” and “CACAGCCCATGGACCGGTTTTCCCGGTAATCCGTATTTGTT (site CACTGCCCTAA)” are within 0.2 log units of each other in “recombinant UMI read abundance (log10)” value: 0.0224 for the first, 0.018 for the second.

First: CACAGTGCATGGACCGGTTTTCCCGGTAATCCGTATTTGAT (site CACAGTGCTAT)
Second: CACATGGCATGGACCGGTTTTCCCGGTAATCCGTATTTGCC (site CACATGGCTGG)
The “recombinant UMI read abundance (log10)” value of the first is higher: 2.52 for the first, 0 for the second.

First: CACCCTACATGGACCGGTTTTCCCGGTAATCCGTATTTGAG (site CACCCTACTCT)
Second: CACCCTACATGGACCGGTTTTCCCGGTAATCCGTATTTGAG (site CCCCCTACTCT)
The “recombinant UMI read abundance (log10)” value of the first is higher: 1.27 for the first, 0.0201 for the second.

“CACCCTACATGGACCGGTTTTCCCGGTAATCCGTATTTGAG (site CGCCCTACTCT)” and “CACCCTACATGGACCGGTTTTCCCGGTAATCCGTATTTGAG (site CTCCCTACTCT)” are within 0.2 log units of each other in “recombinant UMI read abundance (log10)” value: 0.0118 for the first, 0.0244 for the second.

First: CACCCTACATGGACCGGTTTTCCCGGTAATCCGTATTTGGC (site CACCCTACTGC)
Second: CACCTTACATGGACCGGTTTTCCCGGTAATCCGTATTTGTC (site CACCTTACTGA)
The “recombinant UMI read abundance (log10)” value of the first is higher: 2.59 for the first, 0 for the second.

Compared with “CACGACCCATGGACCGGTTTTCCCGGTAATCCGTATTTGTT (site CACGACCCTAA)”, “CACGACCCATGGACCGGTTTTCCCGGTAATCCGTATTTGTT (site CACGCCCCTAA)” is lower in “recombinant UMI read abundance (log10)” value: 0.631 for the first, 0.0282 for the second.

“CACGACCCATGGACCGGTTTTCCCGGTAATCCGTATTTGTT (site CACGGCCCTAA)” and “CACGACCCATGGACCGGTTTTCCCGGTAATCCGTATTTGTT (site CACGTCCCTAA)” are within 0.2 log units of each other in “recombinant UMI read abundance (log10)” value: 0.0138 for the first, 0.00755 for the second.

First: CACGCATCATGGACCGGTTTTCCCGGTAATCCGTATTTGAT (site CACGCATCTAT)
Second: CACGCGACATGGACCGGTTTTCCCGGTAATCCGTATTTGGC (site CACGCGACTGC)
The “recombinant UMI read abundance (log10)” value of the first is lower: 2.51 for the first, 2.94 for the second.

Going from “CACGCTCCATGGACCGGTTTTCCCGGTAATCCGTATTTGTC (site CACGCTCCTGA)” to “CACGGACCATGGACCGGTTTTCCCGGTAATCCGTATTTGTT (site CACGGACCTAA)”, the “recombinant UMI read abundance (log10)” value falls from 2.39 to 0.00996.

“CACGGACCATGGACCGGTTTTCCCGGTAATCCGTATTTGTT (site CACGGCCCTAA)” and “CACGGACCATGGACCGGTTTTCCCGGTAATCCGTATTTGTT (site CACGGGCCTAA)” are within 0.2 log units of each other in “recombinant UMI read abundance (log10)” value: 0.403 for the first, 0.387 for the second.

“CACGGACCATGGACCGGTTTTCCCGGTAATCCGTATTTGTT (site CACGGTCCTAA)” and “CACGGCCCATGGACCGGTTTTCCCGGTAATCCGTATTTGCT (site CACGGCCCTAA)” are within 0.2 log units of each other in “recombinant UMI read abundance (log10)” value: 0 for the first, 0.0432 for the second.

Compared with “CACGGCCCATGGACCGGTTTTCCCGGTAATCCGTATTTGCT (site CACGGCCCTAC)”, “CACGGCCCATGGACCGGTTTTCCCGGTAATCCGTATTTGCT (site CACGGCCCTAG)” is higher in “recombinant UMI read abundance (log10)” value: 0.0286 for the first, 1.12 for the second.

First: CACGGCCCATGGACCGGTTTTCCCGGTAATCCGTATTTGCT (site CACGGCCCTAT)
Second: CACGGCCCATGGACCGGTTTTCCCGGTAATCCGTATTTGTG (site CACGGCCCTAA)
The “recombinant UMI read abundance (log10)” value of the first is higher: 0.636 for the first, 0.0211 for the second.

“CACGGCCCATGGACCGGTTTTCCCGGTAATCCGTATTTGTG (site CACGGCCCTCA)” and “CACGGCCCATGGACCGGTTTTCCCGGTAATCCGTATTTGTG (site CACGGCCCTGA)” are within 0.2 log units of each other in “recombinant UMI read abundance (log10)” value: 0.0766 for the first, 0 for the second.

Going from “CACGGCCCATGGACCGGTTTTCCCGGTAATCCGTATTTGTG (site CACGGCCCTTA)” to “CACGGTCCATGGACCGGTTTTCCCGGTAATCCGTATTTGCA (site CACGGTCCTTG)”, the “recombinant UMI read abundance (log10)” value rises from 0.00311 to 1.74.

“CACGGTCCATGGACCGGTTTTCCCGGTAATCCGTATTTGCA (site CCCGGTCCTTG)” and “CACGGTCCATGGACCGGTTTTCCCGGTAATCCGTATTTGCA (site CGCGGTCCTTG)” are the same in “recombinant UMI read abundance (log10)” value: 0 for the first, 0 for the second.

“CACGGTCCATGGACCGGTTTTCCCGGTAATCCGTATTTGCA (site CTCGGTCCTTG)” and “CACGGTCCATGGACCGGTTTTCCCGGTAATCCGTATTTGTT (site CACGGACCTAA)” are within 0.2 log units of each other in “recombinant UMI read abundance (log10)” value: 0 for the first, 0.00385 for the second.

“CACGGTCCATGGACCGGTTTTCCCGGTAATCCGTATTTGTT (site CACGGCCCTAA)” and “CACGGTCCATGGACCGGTTTTCCCGGTAATCCGTATTTGTT (site CACGGGCCTAA)” are within 0.2 log units of each other in “recombinant UMI read abundance (log10)” value: 0.18 for the first, 0.00486 for the second.

Going from “CACGGTCCATGGACCGGTTTTCCCGGTAATCCGTATTTGTT (site CACGGTCCTAA)” to “CACGTACCATGGACCGGTTTTCCCGGTAATCCGTATTTGCT (site CACGTACCTAG)”, the “recombinant UMI read abundance (log10)” value falls from 1.4 to 0.0043.

Going from “CACTACTCATGGACCGGTTTTCCCGGTAATCCGTATTTGCC (site CACTACTCTGG)” to “CACTACTCATGGACCGGTTTTCCCGGTAATCCGTATTTGCC (site CACTCCTCTGG)”, the “recombinant UMI read abundance (log10)” value falls from 2.55 to 0.801.

With “CACTACTCATGGACCGGTTTTCCCGGTAATCCGTATTTGCC (site CACTGCTCTGG)” the “recombinant UMI read abundance (log10)” value was 0.737.
